{"source": "paper PMC12516812", "about": "(RSC Advances, 2025)", "system": "MCF-7, U87, PANC-1 and A549", "test": "MTT cytotoxicity assay, average over all tested cancer cell lines", "format": "cell-based", "settings": "Homo sapiens, 72 h, read-out: average IC50 against all tested cell lines"}
{"compound": "CC1=CC(=O)C(C(C)C)=CC1=O", "note": "[TQ, Thymoquinone]", "values": [{"measurement": "IC50", "value": "~32", "unit": "µM"}]}
